From ChEMBL document CHEMBL4765279, “Discovery of a novel series of imidazo[1',2':1,6]pyrido[2,3-d]pyrimidin derivatives as potent cyclin-dependent kinase 4/6 inhibitors” (Eur J Med Chem, 2020)
pIC50: −log10 of the molar value. Activity calls are given as the source filed them. The calls are words filed in the database; no cut-off is given here.

Columns and labels:
[1] = Oral bioavailability in Sprague-Dawley rat at 6 mg/kg by LC-MS/MS analysis; type: ADME, organism-based; conditions: in vivo
[2] = Half life in BALB/c mouse at 3 mg/kg, iv by LC-MS/MS analysis; type: ADME, organism-based; conditions: in vivo
[3] = AUC (0 to t) in Sprague-Dawley rat at 6 mg/kg, po by LC-MS/MS analysis; type: ADME, organism-based; design: dose 6 mg/kg; conditions: in vivo
[4] = target: CYP2C9 (Homo sapiens, UniProt P11712); assay: Inhibition of CYP2C9 in human liver microsomes at 10 uM measured after 20 mins in presence of NADPH by LC-MS/MS analysis relative to control; type: ADME
CYP2C9, sequence (P11712 whole entry): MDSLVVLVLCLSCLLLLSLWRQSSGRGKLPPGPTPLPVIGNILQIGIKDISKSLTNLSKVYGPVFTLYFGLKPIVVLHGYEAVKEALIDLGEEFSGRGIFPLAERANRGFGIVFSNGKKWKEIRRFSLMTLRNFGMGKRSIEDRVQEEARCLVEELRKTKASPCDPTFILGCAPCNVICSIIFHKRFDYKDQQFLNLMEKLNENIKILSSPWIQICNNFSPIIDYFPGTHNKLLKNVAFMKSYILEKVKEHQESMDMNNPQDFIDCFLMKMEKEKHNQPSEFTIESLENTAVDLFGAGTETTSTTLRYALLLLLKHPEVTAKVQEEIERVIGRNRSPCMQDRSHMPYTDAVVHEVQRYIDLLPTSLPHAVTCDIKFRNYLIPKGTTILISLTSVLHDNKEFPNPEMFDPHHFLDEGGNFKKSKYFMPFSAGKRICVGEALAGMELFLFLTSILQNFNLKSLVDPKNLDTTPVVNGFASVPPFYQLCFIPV

[5] = test system: COLO 205; assay: Antitumor activity against human COLO 205 cells xenografted in po dosed BALB/c mouse assessed as tumor growth inhibition administered once daily or every three days for 11 days; type: functional, organism-based; conditions: time 11.0 day
[6] = AUC (0 to t) in Sprague-Dawley rat at 3 mg/kg, iv by LC-MS/MS analysis; type: ADME, organism-based; design: dose 3 mg/kg; conditions: in vivo
[7] = Half life in Sprague-Dawley rat at 3 mg/kg, iv by LC-MS/MS analysis; type: ADME, organism-based; conditions: in vivo
[8] = Toxicity in human COLO 205 cells xenografted BALB/c mouse assessed as body weight loss at 30 mg/kg, po q3d for 11 days relative to control; type: organism-based; conditions: in vivo, time 11 day
[9] = Oral bioavailability in BALB/c mouse at 10 mg/kg by LC-MS/MS analysis; type: ADME, organism-based; conditions: in vivo
[10] = Volume of distribution at steady state in BALB/c mouse at 3 mg/kg, iv by LC-MS/MS analysis; type: ADME, organism-based; conditions: in vivo, read-out: Vdss
[11] = target: CDK2/Cyclin A2 (Homo sapiens, UniProt P24941)
Description: Inhibition of CDK2/cyclin A2 (unknown origin)

[12] = test system: COLO 205; assay: Antitumor activity against human COLO 205 cells xenografted in BALB/c mouse assessed as reduction in tumor volume at 3 mg/kg, po qd for 11 days measured post last dose by caliper method; type: functional, organism-based; conditions: time 11.0 day
[13] = Cmax in BALB/c mouse at 10 mg/kg, po by LC-MS/MS analysis; type: ADME, organism-based; design: route oral, dose 10 mg/kg; conditions: in vivo
[14] = test system: COLO 205; assay: Antitumor activity against human COLO 205 cells xenografted in BALB/c mouse assessed as tumor growth inhibition at 3 mg/kg, po qd for 11 days relative to control; type: functional; conditions: COLO 205, po, time 11 day, read-out: TGI
[15] = Cmax in Sprague-Dawley rat at 6 mg/kg, po by LC-MS/MS analysis; type: ADME, organism-based; design: route oral, dose 6 mg/kg; conditions: in vivo
[16] = target: Cytochrome P450 2C19 (Homo sapiens, UniProt P33261); assay: Time-dependent inhibition of CYP2C19 in human liver microsomes at 10 uM in presence of NADPH by LC-MS/MS analysis; type: ADME
Cytochrome P450 2C19, sequence (P33261 whole entry): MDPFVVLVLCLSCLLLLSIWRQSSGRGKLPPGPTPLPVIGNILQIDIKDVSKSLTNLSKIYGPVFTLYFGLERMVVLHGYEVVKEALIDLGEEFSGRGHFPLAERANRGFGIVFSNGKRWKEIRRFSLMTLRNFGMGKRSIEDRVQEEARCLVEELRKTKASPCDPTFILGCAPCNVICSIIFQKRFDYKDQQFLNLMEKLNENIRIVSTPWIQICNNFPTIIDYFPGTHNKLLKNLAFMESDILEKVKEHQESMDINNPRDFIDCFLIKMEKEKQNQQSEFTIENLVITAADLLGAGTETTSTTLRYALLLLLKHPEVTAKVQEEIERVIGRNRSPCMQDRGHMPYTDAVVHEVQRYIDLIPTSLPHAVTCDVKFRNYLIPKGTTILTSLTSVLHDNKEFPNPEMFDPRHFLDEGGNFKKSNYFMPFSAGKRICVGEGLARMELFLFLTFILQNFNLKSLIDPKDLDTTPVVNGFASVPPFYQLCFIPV

[17] = target: Cytochrome P450 3A4 (Homo sapiens, UniProt P08684); assay: Time-dependent inhibition of CYP3A4 in human liver microsomes at 10 uM in presence of NADPH by LC-MS/MS analysis; type: ADME
Cytochrome P450 3A4, sequence (P08684 whole entry): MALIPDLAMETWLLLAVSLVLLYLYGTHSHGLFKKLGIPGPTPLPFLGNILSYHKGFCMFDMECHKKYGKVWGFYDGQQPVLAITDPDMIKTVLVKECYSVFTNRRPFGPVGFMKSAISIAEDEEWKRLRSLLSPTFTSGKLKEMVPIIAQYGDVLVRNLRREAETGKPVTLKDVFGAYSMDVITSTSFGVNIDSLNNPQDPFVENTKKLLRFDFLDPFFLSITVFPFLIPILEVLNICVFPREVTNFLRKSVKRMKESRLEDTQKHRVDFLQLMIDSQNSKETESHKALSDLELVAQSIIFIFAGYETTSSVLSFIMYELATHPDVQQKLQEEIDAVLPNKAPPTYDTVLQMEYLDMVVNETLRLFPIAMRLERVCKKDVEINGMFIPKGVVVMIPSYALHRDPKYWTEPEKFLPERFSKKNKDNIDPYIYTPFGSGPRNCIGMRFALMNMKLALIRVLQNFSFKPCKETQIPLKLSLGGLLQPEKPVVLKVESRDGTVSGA

[18] = Volume of distribution at steady state in Sprague-Dawley rat at 3 mg/kg, iv by LC-MS/MS analysis; type: ADME, organism-based; conditions: in vivo, read-out: Vdss
[19] = test system: COLO 205; assay: Antitumor activity against human COLO 205 cells xenografted in BALB/c mouse assessed as tumor growth at 3 mg/kg, po q3d for 11 days measured post last dose relative to control; type: functional; conditions: time 11 day
[20] = test system: U-87 MG; assay: Antitumor activity against human U-87 MG cells xenografted in BALB/c mouse assessed as tumor growth inhibition at 10 mg/kg, po qd for 16 days relative to control; type: functional, U-87MG ATCC; conditions: 384 h, time 16 day, read-out: TGI
[21] = Half life in Sprague-Dawley rat at 6 mg/kg, po by LC-MS/MS analysis; type: ADME, organism-based; conditions: in vivo
[22] = target: CYP2D6 (Homo sapiens, UniProt P10635); assay: Inhibition of CYP2D6 in human liver microsomes at 10 uM measured after 20 mins in presence of NADPH by LC-MS/MS analysis relative to control; type: ADME
CYP2D6, sequence (P10635 whole entry, the tested form may be a part): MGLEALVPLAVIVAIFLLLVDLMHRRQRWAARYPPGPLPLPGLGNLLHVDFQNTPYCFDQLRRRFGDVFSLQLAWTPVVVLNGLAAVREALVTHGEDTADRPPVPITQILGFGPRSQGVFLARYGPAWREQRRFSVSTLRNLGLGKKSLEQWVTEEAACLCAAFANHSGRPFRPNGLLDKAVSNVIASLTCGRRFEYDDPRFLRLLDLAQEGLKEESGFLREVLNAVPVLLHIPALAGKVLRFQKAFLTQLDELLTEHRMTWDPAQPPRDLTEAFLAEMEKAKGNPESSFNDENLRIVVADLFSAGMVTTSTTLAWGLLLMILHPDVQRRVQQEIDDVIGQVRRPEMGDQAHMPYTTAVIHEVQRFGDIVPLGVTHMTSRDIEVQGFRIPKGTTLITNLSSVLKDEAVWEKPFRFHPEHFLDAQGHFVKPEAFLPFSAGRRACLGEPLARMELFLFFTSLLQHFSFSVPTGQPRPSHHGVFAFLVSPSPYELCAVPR

[23] = target: CDK4/Cyclin D3 (Homo sapiens, UniProt P11802); assay: Inhibition of recombinant human full-length N-terminal GST-fused CDK4 (1 to 303 residues)/GST-tagged CyclinD3 (1 to 292 residues) expressed in baculovirus expression system using ULight-elF4E-binding protein 1 peptide as substrate measured after 30 mins by LANCE assay
CDK4/Cyclin D3, sequence (P11802 whole entry, the tested form may be a part): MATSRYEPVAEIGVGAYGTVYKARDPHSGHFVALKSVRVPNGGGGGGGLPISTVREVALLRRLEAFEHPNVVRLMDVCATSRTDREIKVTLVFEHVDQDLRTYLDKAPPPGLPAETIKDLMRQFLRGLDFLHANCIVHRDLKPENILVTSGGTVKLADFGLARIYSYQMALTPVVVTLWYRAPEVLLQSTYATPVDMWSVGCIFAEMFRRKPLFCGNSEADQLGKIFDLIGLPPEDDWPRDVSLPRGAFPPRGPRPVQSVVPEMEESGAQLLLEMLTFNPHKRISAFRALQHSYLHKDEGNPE
CDK4/Cyclin D3, sequence (P30281 whole entry, further chain, the tested form may be a part): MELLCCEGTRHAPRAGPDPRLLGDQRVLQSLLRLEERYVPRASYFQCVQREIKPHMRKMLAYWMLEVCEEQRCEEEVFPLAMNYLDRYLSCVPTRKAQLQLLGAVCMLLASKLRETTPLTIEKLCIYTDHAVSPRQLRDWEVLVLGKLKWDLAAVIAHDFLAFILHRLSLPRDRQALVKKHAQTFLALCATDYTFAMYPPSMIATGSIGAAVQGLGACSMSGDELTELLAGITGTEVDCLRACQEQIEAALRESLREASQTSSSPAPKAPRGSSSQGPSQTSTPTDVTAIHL

[24] = test system: COLO 205; assay: Cell cycle arrest in human COLO 205 cells assessed as accumulation at G0/G1 phase at 200 nM measured after 24 hrs by propidium iodide staining based flow cytometry relative to control; type: functional
[25] = Intrinsic clearance in human liver microsomes at 1 uM preincubated for 10 mins followed by NADPH addition and measured after 1 hr by LC-MS/MS analysis; type: ADME, Microsome; conditions: time 70 min, read-out: CLH
[26] = target: CYP3A4 (Homo sapiens, UniProt P08684); assay: Inhibition of CYP3A4 in human liver microsomes at 10 uM measured after 20 mins in presence of NADPH by LC-MS/MS analysis relative to control; type: ADME
CYP3A4, sequence (P08684 whole entry): as the sequence (P08684 whole entry) above

[27] = AUC (0 to t) in BALB/c mouse at 10 mg/kg, po by LC-MS/MS analysis; type: ADME, organism-based; design: dose 10 mg/kg; conditions: in vivo
[28] = Toxicity in human COLO 205 cells xenografted BALB/c mouse assessed as body weight loss at 3 mg/kg, po qd for 11 days relative to control; type: organism-based; conditions: in vivo, time 11 day
[29] = test system: U-87 MG; assay: Antiproliferative activity against human U-87 MG cells assessed as cell growth inhibition measured after 4 to 6 days by celltiter-glo luminescent cell viability assay; type: functional, cell-based, U-87MG ATCC
[30] = Half life in BALB/c mouse at 10 mg/kg, po by LC-MS/MS analysis; type: ADME, organism-based; conditions: in vivo
[31] = test system: U-87 MG; assay: Antitumor activity against human U-87 MG cells xenografted in BALB/c mouse assessed as tumor growth at 10 mg/kg, po qd for 16 days relative to control; type: functional, U-87MG ATCC; conditions: time 16 day
[32] = target: Cyclin-dependent kinase 7/ cyclin H (Homo sapiens, UniProt P50613); assay: Inhibition of CDK7/cyclin H (unknown origin); type: protein-complex assay
Cyclin-dependent kinase 7/ cyclin H, sequence (P51946 whole entry): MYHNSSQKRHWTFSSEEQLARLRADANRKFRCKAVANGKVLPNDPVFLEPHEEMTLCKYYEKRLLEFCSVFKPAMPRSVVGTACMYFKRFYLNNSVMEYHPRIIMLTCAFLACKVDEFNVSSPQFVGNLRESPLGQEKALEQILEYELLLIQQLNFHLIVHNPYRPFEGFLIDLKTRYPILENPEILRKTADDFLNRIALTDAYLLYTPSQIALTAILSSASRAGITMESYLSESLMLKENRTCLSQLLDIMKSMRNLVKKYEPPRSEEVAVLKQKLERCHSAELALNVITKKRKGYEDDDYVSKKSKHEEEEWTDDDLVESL
Cyclin-dependent kinase 7/ cyclin H, sequence (P50613 whole entry): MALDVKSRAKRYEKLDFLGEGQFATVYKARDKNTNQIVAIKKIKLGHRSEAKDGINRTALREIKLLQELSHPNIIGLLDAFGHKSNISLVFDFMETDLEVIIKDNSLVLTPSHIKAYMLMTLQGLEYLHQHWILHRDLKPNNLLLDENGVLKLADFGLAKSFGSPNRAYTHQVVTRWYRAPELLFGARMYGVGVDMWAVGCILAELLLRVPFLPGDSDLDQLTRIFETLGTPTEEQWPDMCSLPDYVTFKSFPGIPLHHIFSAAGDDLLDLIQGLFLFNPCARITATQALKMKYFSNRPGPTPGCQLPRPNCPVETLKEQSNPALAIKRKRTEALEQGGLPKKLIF

[33] = test system: COLO 205; assay: Antitumor activity against human COLO 205 cells xenografted in BALB/c mouse assessed as reduction in tumor volume at 30 mg/kg, po q3d for 11 days measured post last dose by caliper method; type: functional, organism-based; conditions: time 11.0 day
[34] = test system: MDA-MB-468; assay: Antiproliferative activity against human MDA-MB-468 cells assessed as cell growth inhibition measured after 4 to 6 days by celltiter-glo luminescent cell viability assay; type: functional, cell-based
[35] = target: CDK6/Cyclin D3 (Homo sapiens, UniProt Q00534); assay: Inhibition of human full-length N-terminal GST tagged CDK6 (1 to 326 residues)/GST-tagged cyclinD3 (1 to 292 residues) expressed in baculovirus expression system using ULight-elF4E-binding protein 1 peptide as substrate measured after 30 mins by LANCE assay
CDK6/Cyclin D3, sequence (Q00534 whole entry, looked up, the tested form may be a part): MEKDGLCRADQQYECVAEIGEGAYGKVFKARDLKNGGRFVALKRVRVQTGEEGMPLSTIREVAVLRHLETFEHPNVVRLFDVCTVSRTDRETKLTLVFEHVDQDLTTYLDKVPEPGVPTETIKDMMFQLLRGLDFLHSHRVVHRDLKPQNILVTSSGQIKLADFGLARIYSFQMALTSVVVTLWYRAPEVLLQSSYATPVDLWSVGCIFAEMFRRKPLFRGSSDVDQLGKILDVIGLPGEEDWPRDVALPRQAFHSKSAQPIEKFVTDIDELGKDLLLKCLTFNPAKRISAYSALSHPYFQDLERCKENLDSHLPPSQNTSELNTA

[36] = target: Cytochrome P450 2D6 (Homo sapiens, UniProt P10635); assay: Time-dependent inhibition of CYP2D6 in human liver microsomes at 10 uM in presence of NADPH by LC-MS/MS analysis; type: ADME
Cytochrome P450 2D6, sequence (P10635 whole entry): as the sequence (P10635 whole entry, the tested form may be a part) above

## CC(=O)c1c(C)c2cnc(Nc3ccc(N4CCNCC4)cc3)nc2n2cc(C(C)C)nc12
[1]
  bioavailability: 65.2%
[2]
  half-life: 6.17 h
[3]
  AUC(0-t): 1120 ng·h/mL
[4]
  inhibition at […], 10 µM: 11%
[5]
  TGI: Dose-dependent effect
[6]
  AUCt: 861 ng·h/mL
[7]
  half-life: 3.25 h
[8]
  Activity: < 20%
[9]
  bioavailability: 20.5%
[10]
  Vd: 46.5 L/kg
[11]
  pIC50: 7.72
[12]
  Activity: Active
[13]
  Cmax: 90 ng/mL
[14]
  inhibition in vivo at 3 mg/kg: 63%
[15]
  Cmax: 110 ng/mL
[16]
  TDI: Not Active
[17]
  TDI: Not Active
[18]
  Vd: 35.2 L/kg
[19]
  T/C: 52%
[20]
  inhibition in vivo at 10 mg/kg: 54%
[21]
  half-life: 4.96 h
[22]
  inhibition at […], 10 µM: 14%
[23]
  pIC50: 9.10
[24]
  Activity: 94.2%
[25]
  microsomal CLint at 1 µM: 6 µL/min/mg
[26]
  inhibition at […], 10 µM: 8%
[27]
  AUC(0-t): 318 ng·h/mL
[28]
  Activity: < 20%
[29]
  pIC50: 7.07
[30]
  half-life: 4.08 h
[31]
  T/C: 53%
[32]
  pIC50: 7.02
[33]
  Activity: Active
[34]
  pIC50: 6.06
[35]
  pIC50: 8.70
[36]
  TDI: Not Active
